Assay results published in patent publication EP2697230B1, “COMPOUNDS FOR THE TREATMENT OF HEPATITIS C” (priority 2011, dated 2012).

Each compound was assayed on HCV pseudoparticles, genotype 1a HCV E1 and E2 envelope (H77C isolate) (assay: HCV pseudoparticle infection assay (luciferase reporter, Huh7 cells)). Conditions: Hepatitis C virus, Huh-7, 48 h, read-out: EC50 (nM) 1a (H77C), class symbol, HCV pseudoparticles genotype 1a (H77C), luciferase 2 days after infection.
Assay type: cell-based

`CNC(=O)N1CCCOc2ccc(cc2)CNc2nc(nc(OCC(F)(F)F)n2)Nc2ccc(cc2)C(=O)NCC(C)(C)C1` [Example 6038] and `CC(C)OC(=O)N1CCCOc2ccc(cc2)CNc2nc(nc(OCC(F)(F)F)n2)Nc2ccc(cc2)C(=O)NCC(C)(C)C1` [Example 6035] fall in the same range of EC50: 0.1 to 100 nM for the first, 0.1 to 100 nM for the second.

Compared with `CN(C)CCCN1CCCNC(=O)c2ccc(cc2)Nc2nc(nc(OCC(F)(F)F)n2)Nc2ccc(cc2)C1=O` [Example 0023], `CCN(CC)CCN1CCNC(=O)c2ccc(cc2)CNc2nc(nc(OCC(F)(F)F)n2)Nc2ccc(cc2)C1=O` [Example 0035] is higher in EC50: 100 to 1000 nM for the first, 1000 to 5000 nM for the second. The first is the more potent here.

`CC1(C)NC(=O)NCc2ccc(cc2)CNc2nc(nc(OCC(F)(F)F)n2)Nc2ccc(cc2)CNC(=O)NC(C)(C)c2cccc1c2` [Example 0057] and `CC1(C)NC(=O)NCc2ccc(cc2)Nc2nc(nc(OCC(F)(F)F)n2)NCc2cccc(c2)CNC(=O)NC(C)(C)c2cccc1c2` [Example 0058] fall in the same range of EC50: 100 to 1000 nM for the first, 100 to 1000 nM for the second.

`O=C1CNC(=O)CNC(=O)c2ccc(cc2)Nc2nc(nc(OCC(F)(F)F)n2)NCc2ccc(cc2)NC(=O)CN1` [Example 3003] and `O=C1NCc2ccc(cc2)Nc2nc(nc(OCC(F)(F)F)n2)NCc2cccc(c2)CNC(=O)c2ccc1cc2` [Example 0060] fall in the same range of EC50: 100 to 1000 nM for the first, 100 to 1000 nM for the second.

`CCNC(=O)N1CCCCNC(=O)c2ccc(cc2)Nc2nc(nc(OCC(F)(F)F)n2)NCc2ccc(cc2)OCC1` [Example 4007] and `CCNC(=O)N1CCCCOc2ccc(cc2)CNc2nc(nc(OCC(F)(F)F)n2)Nc2ccc(cc2)C(=O)NCCC1` [Example 4031] fall in the same range of EC50: 0.1 to 100 nM for the first, 0.1 to 100 nM for the second.

`CC(C)(C)OC(=O)N1CCCNC(=O)c2ccc(cc2)Nc2nc(nc(OCC(F)(F)F)n2)NCc2ccc(cc2)OCCC1` [Example 6017] and `CC(C)(C)OC(=O)N1CCCOc2ccc(cc2)CNc2nc(nc(OCC(F)(F)F)n2)Nc2ccc(cc2)C(=O)NCC1` [Example 6002] fall in the same range of EC50: 0.1 to 100 nM for the first, 0.1 to 100 nM for the second.

`CC(C)(C)NC(=O)N1CCCCNC(=O)c2ccc(cc2)Nc2nc(nc(OCC(F)(F)F)n2)NCc2ccc(cc2)OCCC1` [Example 6023] and `CC(C)(C)C(=O)N1CCCCNC(=O)c2ccc(cc2)Nc2nc(nc(OCC(F)(F)F)n2)NCc2ccc(cc2)OCC1` [Example 4005] fall in the same range of EC50: 0.1 to 100 nM for the first, 0.1 to 100 nM for the second.

`CN1CCCNC(=O)c2ccc(cc2)Nc2nc(nc(OCC(F)(F)F)n2)NCc2ccc(cc2)OCCC1` [Example 6018] and `CCCCN1CCCNC(=O)c2ccc(cc2)Nc2nc(nc(OCC(F)(F)F)n2)NCc2ccc(cc2)OCCC1` [Example 6019] fall in the same range of EC50: 0.1 to 100 nM for the first, 0.1 to 100 nM for the second.

Compared with `O=C1NCc2ccc(cc2)Nc2nc(nc(OCC(F)(F)F)n2)NCc2cccc(c2)CNC(=O)NC2CCC(CC2)CC2CCC(CC2)N1` [Example 0054], `O=C1NCCCCCCNC(=O)NCc2cccc(c2)CNc2nc(nc(OCC(F)(F)F)n2)Nc2ccc(cc2)CN1` [Example 0056] is lower in EC50: 1000 to 5000 nM for the first, 100 to 1000 nM for the second. The second is the more potent here.

First: O=C1CCCC(=O)NCc2cccc(c2)CNc2nc(nc(OCC(F)(F)F)n2)Nc2ccc(cc2)CN1 [Example 0062]
Second: O=C1COCC(=O)NCc2cccc(c2)CNc2nc(nc(OCC(F)(F)F)n2)Nc2ccc(cc2)CN1 [Example 0070]
The EC50 of the first is higher: 100 to 1000 nM for the first, 0.1 to 100 nM for the second.

`O=C1NCCCNCCCCOc2ccc(cc2)CNc2nc(nc(OCC(F)(F)F)n2)Nc2ccc1cc2` [Example 4017] and `CC(C)C(=O)N1CCCCOc2ccc(cc2)CNc2nc(nc(OCC(F)(F)F)n2)Nc2ccc(cc2)C(=O)NCCC1` [Example 4020] fall in the same range of EC50: 0.1 to 100 nM for the first, 0.1 to 100 nM for the second.

`O=C1CCCCCCC(=O)NCc2ccc(cc2)Nc2nc(nc(OCC(F)(F)F)n2)NCc2ccc(cc2)CN1` [Example 0063] and `O=C1NCc2ccc(cc2)CNc2nc(nc(OCC(F)(F)F)n2)Nc2ccc(cc2)CNC(=O)OCCOCCOCCO1` [Example 0067] fall in the same range of EC50: 100 to 1000 nM for the first, 100 to 1000 nM for the second.

`O=C1NCCCCNCCOc2ccc(cc2)CNC2=N/C(=N\c3ccc1cc3)N=C(OCC(F)(F)F)N2` [Example 4001, (2E)-5-(2,2,2-trifluoroethoxy)-14-oxa-2,4,6,8,17,22,31-heptaazatetracyclo[22.2.2.2∼10,13∼.1∼3,7∼]hentriaconta-1(26),2,4,7(31),10,12,24,27,29-nonaen-23-one] and `CCC(=O)N1CCCCNC(=O)c2ccc(cc2)Nc2nc(nc(OCC(F)(F)F)n2)NCc2ccc(cc2)OCC1` [Example 4003] fall in the same range of EC50: 0.1 to 100 nM for the first, 0.1 to 100 nM for the second.

`CCCOC(=O)N1CCCNC(=O)c2ccc(cc2)Nc2nc(nc(OCC(F)(F)F)n2)NCc2ccc(cc2)OCCC1` [Example 6016] and `CCOC(=O)N1CCCNC(=O)c2ccc(cc2)Nc2nc(nc(OCC(F)(F)F)n2)NCc2ccc(cc2)OCCC1` [Example 6015] fall in the same range of EC50: 0.1 to 100 nM for the first, 0.1 to 100 nM for the second.

First: CC1(C)C(=O)NCc2ccc(cc2)Nc2nc(nc(OCC(F)(F)F)n2)NCc2cccc(c2)CNC1=O [Example 0072]
Second: O=C1NCCCCCCNC(=O)c2ccc(cc2)Nc2nc(nc(OCC(F)(F)F)n2)NCc2ccc1cc2 [Example 0032]
The EC50 of the first is lower: 0.1 to 100 nM for the first, 100 to 1000 nM for the second. The first is the more potent here.

`COC(=O)N1CCCCOc2ccc(cc2)CNc2nc(nc(OCC(F)(F)F)n2)Nc2ccc(cc2)C(=O)NCCC1` [Example 4023] and `CCOC(=O)N1CCCCOc2ccc(cc2)CNc2nc(nc(OCC(F)(F)F)n2)Nc2ccc(cc2)C(=O)NCCC1` [Example 4024] fall in the same range of EC50: 0.1 to 100 nM for the first, 0.1 to 100 nM for the second.

Compared with `O=C1NCCCN2CCN(CCCNC(=O)c3ccc(cc3)Nc3nc(nc(OCC(F)(F)F)n3)NCc3ccc1cc3)CC2` [Example 0039], `CC(C)CN1CCCNC(=O)c2ccc(cc2)Nc2nc(nc(OCC(F)(F)F)n2)NCc2ccc(cc2)OCCC1` [Example 6020] is lower in EC50: 100 to 1000 nM for the first, 0.1 to 100 nM for the second. The second is the more potent here.

`CC(C)NC(=O)N1CCCCNC(=O)c2ccc(cc2)Nc2nc(nc(OCC(F)(F)F)n2)NCc2ccc(cc2)OCC1` [Example 4008] and `CC(C)(C)OC(=O)N1CCCCNC(=O)c2ccc(cc2)Nc2nc(nc(OCC(F)(F)F)n2)NCc2ccc(cc2)OCC1` [Example 4016] fall in the same range of EC50: 0.1 to 100 nM for the first, 0.1 to 100 nM for the second.

`CN1CCCN(C)CCCN(C)C(=O)c2ccc(cc2)Nc2nc(nc(OCC(F)(F)F)n2)Nc2ccc(cc2)C(=O)N(C)CCC1` [Example 0024] and `CN1CCCN(C)CCCN(C)C(=O)c2ccc(cc2)Nc2nc(nc(OCC(F)(F)F)n2)NCc2ccc(cc2)C(=O)N(C)CCC1` [Example 0041] fall in the same range of EC50: 1000 to 5000 nM for the first, 1000 to 5000 nM for the second.

Same assay, conditions: Hepatitis C virus, Huh-7, 48 h, read-out: EC50 (nM) 1a (H77C), numeric value, HCV pseudoparticles genotype 1a (H77C), luciferase 2 days after infection

Going from `O=C1NCc2ccc(cc2)Nc2nc(nc(OCC(F)(F)F)n2)NCc2cccc(c2)CNC(=O)NC2CCC(CC2)CC2CCC(CC2)N1` [Example 0054] to `CN1CCCN(C)CCCN(C)C(=O)c2ccc(cc2)Nc2nc(nc(OCC(F)(F)F)n2)NCc2ccc(cc2)C(=O)N(C)CCC1` [Example 0041], the EC50 rises from 5210 nM to 21600 nM (4.1-fold).

`CN1CCCN(C)CCCN(C)C(=O)c2ccc(cc2)Nc2nc(nc(OCC(F)(F)F)n2)Nc2ccc(cc2)C(=O)N(C)CCC1` [Example 0024] gave an EC50 of 16300 nM.

Same assay, conditions: class symbol, HCV pseudoparticles genotype 1a (H77C), luciferase 2 days after infection, read-out: EC50 (nM) 1a (H77C)

`O=C1NCCCNCCCCCCCCNc2nc(nc(OCC(F)(F)F)n2)Nc2ccc1cc2` [Example 9001] and `O=C1NCCCCCCCCCCNc2nc(nc(OCC(F)(F)F)n2)Nc2ccc1cc2` [Example 0003] fall in the same range of EC50: 100 to 1000 nM for the first, 100 to 1000 nM for the second.

First: O=C1NCCCOCCCCOCCCNc2nc(nc(OCC(F)(F)F)n2)Nc2ccc1cc2 [Example 0004]
Second: O=C1NCCCCNC(=O)C2(CC2)Nc2nc(nc(OCC(F)(F)F)n2)Nc2ccc1cc2 [Example 0006]
The EC50 of the first is lower: 0.1 to 100 nM for the first, 1000 to 5000 nM for the second.

Compound `O=C1NC2CNCC2C(=O)NCCCCCCOc2ccc(cc2)CNc2nc(nc(OCC(F)(F)F)n2)Nc2ccc1cc2` (centres unmarked) [Example 0007] has an EC50 of 0.1 to 100 nM.

Same assay, conditions: numeric value, HCV pseudoparticles genotype 1a (H77C), luciferase 2 days after infection, read-out: EC50 (nM) 1a (H77C)

Compared with `O=C1NCCCNCCCCCCCCNc2nc(nc(OCC(F)(F)F)n2)Nc2ccc1cc2` [Example 9001], `O=C1NCCCCCCCCCCNc2nc(nc(OCC(F)(F)F)n2)Nc2ccc1cc2` [Example 0003] is 2.4-fold lower in EC50: 243 nM for the first, 101 nM for the second.

First: O=C1NCCCOCCCCOCCCNc2nc(nc(OCC(F)(F)F)n2)Nc2ccc1cc2 [Example 0004]
Second: O=C1NC2CNCC2C(=O)NCCCCCCOc2ccc(cc2)CNc2nc(nc(OCC(F)(F)F)n2)Nc2ccc1cc2 (centres unmarked) [Example 0007]
The EC50 of the first is 5.8-fold higher: 48.4 nM for the first, 8.31 nM for the second.
